Laboratory results from PMC5802278, “Molecular and cellular mechanisms of HIF prolyl hydroxylase inhibitors in clinical trials” (Chemical Science, 2017).
Where two headings read alike, the source gives them in different places.

Tests used:
[1] = biological target: T1, PHD2 catalytic domain (residues 181-426) (Homo sapiens, UniProt Q9GZT9); experiment: AlphaScreen antibody based PHD2 assay (HIF-1α CODD peptide hydroxylation); format: biochemical; design: 10 nM PHD2 (catalytic domain, residues 181–426); made in house; conditions: AlphaScreen; 5 nM PHD2, 2 μM 2OG, 60 nM biotinylated CODD peptide; read-out: IC50 PHD2
T1 sequence (Q9GZT9 181-426): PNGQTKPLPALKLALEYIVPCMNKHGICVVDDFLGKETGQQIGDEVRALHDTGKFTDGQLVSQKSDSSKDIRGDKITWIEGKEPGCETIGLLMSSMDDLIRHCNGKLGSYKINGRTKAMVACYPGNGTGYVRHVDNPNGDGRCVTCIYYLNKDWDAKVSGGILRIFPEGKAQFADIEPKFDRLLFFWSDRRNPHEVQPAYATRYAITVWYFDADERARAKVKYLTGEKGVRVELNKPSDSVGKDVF
Experimental: AlphaScreen antibody based PHD assays were as reported[39] using 384-well white ProxiPlates™ (PerkinElmer). Reactions were performed in 50 mM HEPES buffer pH 7.5, 0.01% Tween-20 and 0.1% BSA in a final volume of 10 μL at room temperature. […] The luminescence signal was measured using an Envision (Perkin Elmer) plate reader. Data were analyzed utilizing GraphPad prism.

PHD2 = PHD2 (Homo sapiens, UniProt Q9GZT9); experiment: MALDI-TOF MS PHD hydroxylation assay; format: biochemical; conditions: 1μM isolated recombinant human PHD2, MALDI-TOF MS
Chain of PHD2 (Q9GZT9 whole entry): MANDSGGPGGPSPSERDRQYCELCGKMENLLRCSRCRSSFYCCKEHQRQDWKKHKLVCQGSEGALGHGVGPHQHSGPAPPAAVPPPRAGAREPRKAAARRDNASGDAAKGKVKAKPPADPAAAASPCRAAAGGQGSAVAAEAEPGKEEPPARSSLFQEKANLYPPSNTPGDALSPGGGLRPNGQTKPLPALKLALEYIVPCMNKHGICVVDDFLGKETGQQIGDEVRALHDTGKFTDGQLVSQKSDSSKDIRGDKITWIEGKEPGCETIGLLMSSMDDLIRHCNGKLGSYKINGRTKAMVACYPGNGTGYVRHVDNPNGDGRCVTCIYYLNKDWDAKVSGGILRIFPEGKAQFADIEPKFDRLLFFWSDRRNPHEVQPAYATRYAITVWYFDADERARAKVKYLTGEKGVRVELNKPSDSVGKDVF
Experimental: Protocols for in vitro PHD1–3 MALDI-TOF MS hydroxylation assays[30] and for the AlphaScreen histone demethylase assays[44] were as reported.
Although sharing homologous C-terminal catalytic domains, the N-terminal regions of PHD1–3 vary. […] In vitro inhibition assays of the clinical trial PHD inhibitors (and some of their structurally related analogue) against 1 μM recombinant human PHD1–3 were performed.
Fig. S11. In vitro PHD isoform selectivity profiling of PHD inhibitors. Inhibition of PHD inhibitors against human PHD125 -3 as assayed by MALDI-TOF MS (the protocol is described in Chan et al. ). Eight concentrations were used to obtained dose-response curve for each compound. Data points presented in the graph are mean with standard deviation, n=3. IC50 […]
(1 picture or pasted object on this page, not shown here)

[2] = biological target: T1, PHD2 catalytic domain (residues 181-426); experiment: NMR KD measurement (2OG displacement or water relaxation); format: binding; design: The catalytic domain of human PHD2 (residues 181-426) was used in all; made in house; conditions: water relaxation or 2OG displacement
Experimental: Water-Ligand Observed Gradient SpectroscopY (wLOGSY) experiments were conducted […]
Solvent excitation was achieved using a 16 ms 180 degree selective rectangular shape pulse with 100% truncation level and 1000 points (Squa100.1000) set at the H2O frequency. Water suppression was achieved by a 2 ms Sinc (Sinc1.1000) pulse at the H2O frequency.
2OG displacement experiments were monitored by CPMG-edited 1H NMR using a Bruker […]
supplemented with 60 µM Zn(II) and increasing concentrations of the inhibitors from a […]
(90°x−[τ−180°y−τ−90°y−τ−180°y−τ]n−acq), was applied. Typical experimental parameters were […]
suppression was achieved by presaturation.
For 13C-CODD and […] displacement experiments, 1D Clean In-Phase (CLIP) HSQC with selective 13C-inversion displacement experiments were conducted using a Bruker AV700 instrument. 3 mm MATCH NMR tubes were used (Cortecnet). All experiments were […]
prolyl-ring. 7 The CLIP-HSQC sequence was used for 1D HSQC experiments (without 13C decoupling).8 Relaxation delay was 2s. The 1JCH was set to 160 Hz. A 6.8 ms Q3.1000 180 degree pulse was used and selective irradiation was applied at the selected chemical shift. […]
Samples were prepared by mixing reaction mixture (1 μL) with α-cyano-4-hydrocinnamic acid (CHCA) solution (water:acetonitrile 1:1) (1 μL). Dose-response was assessed in 8-point […]

[3] = system: subjects with non-dialysis CKD stage 3-5 and Hb < 10.5 g/dL; design: method as in ref 39 (a number printed in a supplementary file, which may have a reference list of its own: not looked up in the article's list); conditions: all Molidustat doses (25, 50, 75 mg daily; 25, 50 mg BID), 16 weeks; cited from earlier work
[4] = system: patients with anaemia secondary to CKD stage 3 or 4; design: method as in ref 32 (a number printed in a supplementary file, which may have a reference list of its own: not looked up in the article's list); conditions: 6 weeks, cited from earlier work
[5] = system: patients with ESRD and Hb ≤ 10.0 g/dL; design: method as in ref 37 (a number printed in a supplementary file, which may have a reference list of its own: not looked up in the article's list); conditions: cited from earlier work
[6] = system: patients with NDD CKD and Hb < 10.0 g/dL; design: method as in ref 38 (a number printed in a supplementary file, which may have a reference list of its own: not looked up in the article's list); conditions: TIW, 9 weeks, cited from earlier work

CC(C)(C)OC(=O)c1ccc(-n2[nH]cc(-n3ccnn3)c2=O)nc1 [IOX4]
IC50 [1]: 3 nM
IC50 (PHD2): 940 nM
KD [2]: sub-μM range

O=c1c(-n2ccnn2)c[nH]n1-c1cc(N2CCOCC2)ncn1 [Molidustat]
IC50 [1]: 7 nM
IC50 (PHD2): 1850 nM
KD [2]: sub-μM range
Hb increase [3]: at least 1.14 g/dL

O=C(O)CNC(=O)c1ncc(-c2cccc(Cl)c2)cc1O [Vadadustat]
subjects with Hb increase ≥ 1 g/dL from baseline ([4]; 240 mg daily): 31%
subjects with Hb increase ≥ 1 g/dL from baseline ([4]; 370 mg daily): 40%
subjects with Hb increase ≥ 1 g/dL from baseline ([4]; 500 mg daily): 65%
subjects with Hb increase ≥ 1 g/dL from baseline ([4]; 630 mg daily): 78%

Cc1nc(C(=O)NCC(=O)O)c(O)c2ccc(Oc3ccccc3)cc12 [FG-4592]
subjects with Hb increase ≥ 1 g/dL (Hb response) from baseline ([5]; all Roxadustat treated subjects, 12 weeks): 96%
median time to Hb response ([5]; each cohort): 3 weeks
subjects with Hb increase ≥ 1 g/dL from baseline ([6]; high-dose cohort): 87.1%
subjects with Hb increase ≥ 1 g/dL from baseline ([6]; low-dose cohort): 80%
